Source: patent US9138494B2, “Radiolabeled PDE10A ligands” (AbbVie Inc., priority 2011, dated 2015)
Values belong to the molecule of their own block, whether it stands above or below them.

Columns and labels:
PDE10A = PDE10A (Homo sapiens, UniProt Q9Y233); assay: PDE enzymatic inhibition assay (HTRF cAMP kit); type: biochemical; settings: recombinant PDE10, 20 nM substrate, 60 minutes at 29° C.
Method: Recombinant PDE proteins were used in in vitro enzymatic reaction for measurement of PDE activity. […] The enzymatic activity of PDEs was determined by cAMP measurement kit from CisBio (IBA) using HTRF technology. The PDE enzymatic reaction was carried out in assay buffer (20 mM Tris-HCl pH7.5, 10 mM MgCl2, 0.1% bovine serum albumin) containing enzyme and substrate. The PDE enzymes concentration ranged from 10 pM-250 pM, depending on each enzyme's specific activity. […] The inhibitory effect of compound was determined by incubating various concentration of inhibitor in the enzymatic assay. […] Next, the compound at varying concentration was mixed with PDE enzyme. The reaction was initiated by addition of cyclic nucleotide substrate, and incubated for 60 minutes at 29° C. The reaction was stopped by addition of lysis buffer from assay kit. The cAMP-d2 and anti-cAMP cryptate in the lysis buffer detected the level of cAMP left from the PDE hydrolysis reaction. […] Thus, IC50 value of inhibitor can be obtained by plotting inhibitor concentration against PDE activity at that concentration.

[1] = log D determined by shake flask method; type: physicochemical; settings: read-out: SF log D
[2] = Rat PK (0.05 mg/kg, iv), free brain concentration and free B/P; type: in vivo
Rat hepatocyte half-life = type: in vitro ADME; settings: hepatocytes; rat (R); read-out: Hepatocyte T1/2
P-gp = P-gp (Homo sapiens (Human), UniProt P08183); assay: MDCK-MDR1 assay, Efflux Ratio (P-gp); type: in vitro ADME; settings: dog; MDCK-MDR1 cells
Chain of P-gp (P08183 whole entry): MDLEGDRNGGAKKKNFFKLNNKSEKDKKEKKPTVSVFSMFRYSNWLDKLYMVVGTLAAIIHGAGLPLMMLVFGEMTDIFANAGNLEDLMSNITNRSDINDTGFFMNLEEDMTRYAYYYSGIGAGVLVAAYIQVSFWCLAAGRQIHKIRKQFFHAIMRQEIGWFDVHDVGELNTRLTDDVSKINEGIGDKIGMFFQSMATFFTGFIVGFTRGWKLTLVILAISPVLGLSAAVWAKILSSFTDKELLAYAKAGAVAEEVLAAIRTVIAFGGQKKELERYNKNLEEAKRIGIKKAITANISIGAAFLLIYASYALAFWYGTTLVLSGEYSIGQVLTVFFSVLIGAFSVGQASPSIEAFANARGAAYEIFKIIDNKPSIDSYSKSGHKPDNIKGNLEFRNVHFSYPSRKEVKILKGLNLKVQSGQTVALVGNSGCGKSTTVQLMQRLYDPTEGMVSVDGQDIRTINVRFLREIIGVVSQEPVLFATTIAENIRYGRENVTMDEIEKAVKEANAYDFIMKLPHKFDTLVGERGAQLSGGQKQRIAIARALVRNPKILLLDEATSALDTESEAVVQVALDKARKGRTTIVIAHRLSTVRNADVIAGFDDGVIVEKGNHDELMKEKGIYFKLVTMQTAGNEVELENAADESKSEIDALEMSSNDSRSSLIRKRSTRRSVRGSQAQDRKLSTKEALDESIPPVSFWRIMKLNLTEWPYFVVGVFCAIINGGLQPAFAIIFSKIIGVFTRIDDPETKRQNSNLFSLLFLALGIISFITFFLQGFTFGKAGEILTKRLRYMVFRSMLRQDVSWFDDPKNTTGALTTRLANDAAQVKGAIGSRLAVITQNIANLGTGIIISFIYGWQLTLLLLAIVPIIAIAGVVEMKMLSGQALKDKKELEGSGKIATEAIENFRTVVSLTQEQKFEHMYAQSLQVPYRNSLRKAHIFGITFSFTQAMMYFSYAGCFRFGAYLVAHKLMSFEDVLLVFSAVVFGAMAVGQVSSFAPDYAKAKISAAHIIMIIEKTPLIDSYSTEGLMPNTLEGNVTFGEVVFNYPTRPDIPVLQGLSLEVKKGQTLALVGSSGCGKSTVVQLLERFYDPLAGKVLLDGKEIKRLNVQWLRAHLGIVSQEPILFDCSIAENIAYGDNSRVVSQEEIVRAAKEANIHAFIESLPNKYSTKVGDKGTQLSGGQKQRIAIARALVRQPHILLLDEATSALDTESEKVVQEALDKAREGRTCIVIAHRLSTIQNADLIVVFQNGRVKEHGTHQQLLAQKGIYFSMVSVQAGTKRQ

[3] = Human hepatocyte half-life; type: in vitro ADME; settings: for half-life: hepatocytes, human (H), read-out: Hepatocyte T1/2
[4] = Monkey microsome half-life; type: in vitro ADME; settings: monkey microsomes; read-out: Monkey Microsome T1/2
rats [5] = settings: cited from earlier work
rats [6] = settings: cited from earlier work; remark: listed apart in the source
rats [7] = settings: cited from earlier work; remark: listed apart in the source

Chain of PDE10A (Q9Y233 whole entry, looked up): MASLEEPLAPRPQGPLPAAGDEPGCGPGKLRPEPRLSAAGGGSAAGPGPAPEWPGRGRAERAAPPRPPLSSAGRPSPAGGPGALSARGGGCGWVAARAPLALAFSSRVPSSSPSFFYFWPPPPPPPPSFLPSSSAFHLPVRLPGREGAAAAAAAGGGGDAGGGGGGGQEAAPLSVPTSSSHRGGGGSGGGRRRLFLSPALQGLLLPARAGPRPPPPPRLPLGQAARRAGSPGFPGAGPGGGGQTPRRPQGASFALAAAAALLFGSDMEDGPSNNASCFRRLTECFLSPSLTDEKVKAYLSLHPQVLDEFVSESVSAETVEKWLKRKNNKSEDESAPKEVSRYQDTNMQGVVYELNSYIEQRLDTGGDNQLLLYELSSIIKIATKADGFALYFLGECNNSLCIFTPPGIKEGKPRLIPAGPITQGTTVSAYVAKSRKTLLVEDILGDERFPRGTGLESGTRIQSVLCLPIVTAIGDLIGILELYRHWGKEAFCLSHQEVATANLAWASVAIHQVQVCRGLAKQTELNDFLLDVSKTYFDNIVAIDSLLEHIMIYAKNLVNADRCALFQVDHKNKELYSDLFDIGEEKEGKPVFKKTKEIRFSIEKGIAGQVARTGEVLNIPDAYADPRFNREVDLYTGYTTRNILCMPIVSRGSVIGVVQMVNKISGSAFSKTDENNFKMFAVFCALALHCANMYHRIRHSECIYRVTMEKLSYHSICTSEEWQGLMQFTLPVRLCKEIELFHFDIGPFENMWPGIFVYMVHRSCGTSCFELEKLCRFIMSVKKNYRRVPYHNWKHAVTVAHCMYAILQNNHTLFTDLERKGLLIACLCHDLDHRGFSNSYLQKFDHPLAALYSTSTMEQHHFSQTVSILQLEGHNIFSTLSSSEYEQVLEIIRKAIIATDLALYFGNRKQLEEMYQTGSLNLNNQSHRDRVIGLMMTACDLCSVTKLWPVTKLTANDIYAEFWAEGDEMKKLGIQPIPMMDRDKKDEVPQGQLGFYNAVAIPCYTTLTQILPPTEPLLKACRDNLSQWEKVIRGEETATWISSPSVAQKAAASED

IC50 (PDE10A): 1.05 nM
SMILES: Cn1cc(-c2ccncc2)c(-c2ccc(OCc3ccc4ncccc4n3)cc2)n1 [Example 1, 2-((4-(1-methyl-4-(pyridin-4-yl)-1H-pyrazol-3-yl)phenoxy)methyl)-1,5-naphthyridine]

logD [1]: 3.71 | Free B/P (ratio of free brain concentration divided by free plasma concentration) ([2]; 3 min after dose): 0.20 | Free [brain] ([2]; 3 min after dose): 0.692 ng/g | Free B/P (ratio of free brain concentration divided by free plasma concentration) ([2]; 5 min after dose): 0.13 | Free [brain] ([2]; 5 min after dose): 0.184 ng/g | IC50 (PDE10A): 0.2 nM | half-life (Rat hepatocyte half-life): 12 min | efflux ratio (P-gp): 1.95 | half-life [3]: 79 min | half-life [4]: 24 min
SMILES: FCCn1cc(-c2ccncc2)c(-c2ccc(OCc3ccc4ncccc4n3)cc2)n1 [Example 2, 2-((4-(1-(2-fluoroethyl)-4-(pyridin-4-yl)-1H-pyrazol-3-yl)phenoxy)methyl)-1,5-naphthyridine]
human hepatocyte half-life compared with MP-10, JNJ-41510417 and Janssen B-3 ([3]; human Hepatocyte T1/2): significantly longer human hepatocyte half-lives

IC50 (PDE10A): 4.7 nM
SMILES: FCCn1cc(-c2ccncc2)c(-c2ccc(OCc3nc4ccccc4o3)cc2)n1 [Example 3, 2-((4-(1-(2-fluoroethyl)-4-(pyridin-4-yl)-1H-pyrazol-3-yl)phenoxy)methyl)benzo[d]oxazole]

IC50 (PDE10A): 2 nM
SMILES: Cn1cc(-c2ccncc2)c(-c2ccc(OCc3nc4ccccc4c(=O)n3C)cc2)n1 [Example 4, 3-methyl-2-((4-(1-methyl-4-(pyridin-4-yl)-1H-pyrazol-3-yl)phenoxy)methyl)quinazolin-4(3H)-one]

IC50 (PDE10A): 0.18 nM
SMILES: FCCn1cc(-c2ccncc2)c(-c2ccc(OCc3ncc4ccccc4n3)cc2)n1 [Example 9, 2-((4-(1-(2-fluoroethyl)-4-(pyridin-4-yl)-1H-pyrazol-3-yl)phenoxy)methyl)quinazoline]

SMILES: FCCn1cc(-c2ccncc2)c(-c2ccc(OCc3ccc4ccccc4n3)cc2)n1 [JNJ-41510417, reference compound]
IC50 (PDE10A): 0.63 nM

SMILES: Cc1cnc(COc2ccc(-c3nn(CCF)cc3-c3ccncc3)cc2)c(C)c1 [Janssen B-3, reference compound]
IC50 (PDE10A): 0.98 nM

logD [1]: 4.28 | Free [brain] ([2]; 3 min after dose): 0.054 ng/g | Free [brain] ([2]; 5 min after dose): 0.098 ng/g | half-life (Rat hepatocyte half-life): 13 min | half-life [3]: 54.9 min | half-life [4]: 7 min
SMILES: Cn1cc(-c2ccncc2)c(-c2ccc(OCc3ccc4ccccc4n3)cc2)n1 [MP-10, reference compound]

SMILES: COc1ccc(Cc2nccc3cc(OC)c(OC)cc23)cc1OC [Papaverine, papaverine]
reduction of amphetamine-induced hyperactivity (rats [5]): insignificant | catalepsy on its own (rats [6]; alone): did not cause catalepsy on its own | effect on haloperidol-induced catalepsy (rats [6]; with haloperidol): potentiated the cataleptic effect | PCP-induced hyperactivity (rats [7]): reduced hyperactivity
